Earlier results, collected in patent publication US20200046722A1, “METHOD AND COMPOSITION FOR TREATING EATING DISORDERS” (India Globalization Capital, Inc., priority 2017, published 2020).

How the values were obtained:
[1] = system: patients with cancer related anorexia-cachexia syndrome; settings: at the dosage administered
cats = settings: versus placebo

SMILES | appetite versus placebo [1] | patient's quality of life versus placebo [1] | appetite in comparison with placebo (cats) | food ingested in comparison with placebo (cats)
CCCCCc1cc(O)c2c(c1)OC(C)(C)[C@@H]1CCC(C)=C[C@@H]21 [Delta-9-tetrahydrocannabinol (THC), Delta-9-tetrahydrocannabinol] | no difference | no difference |  | 
CN1CCN2c3ncccc3Cc3ccccc3C2C1 (stereo not drawn) [mirtazapine, 1,2,3,4,10,14b-hexahydro-2-methylpyrazino[2,1-α]pyrido[2,3-c]benzazepine] |  |  | greater appetite | ingested significantly more food
